Assay results as given in patent US8268815B2, “Pyrimidine compounds and use thereof” (Abbott GmbH & Co. KG, priority 2004, dated 2012).

Tests used:
[1] = target: T1, human dopamine D2L receptors (long isoform) (Homo sapiens, UniProt P14416); experiment: Dopamine D2L receptor binding, displacement of [125I]-iodospiperone; conditions: ratio Ki(D2L)/Ki(D3); HEK-293 membranes
T1 construct: expressed in transfected cells
Method: (§1) The substance to be tested was dissolved either in methanol/Chremophor® (BASF-AG) or in dimethyl sulfoxide and then diluted with water to the desired concentration.
II. Dopamine D2L Receptor:
(§2) Triplicate mixtures were carried out.
The incubation buffer comprised 50 mM Tris, 120 mM NaCl, 5 mM KCl, 2 mM CaCl2, 2 mM MgCl2 and 0.1% bovine serum albumin. The buffer was adjusted to pH 7.4 with HCl.
(§3) III. Measurement and Evaluation:
(§4) After incubation at 25° C. for 60 minutes, the mixtures were filtered under vacuum through Whatman GF/B glass fiber filters using a cell harvester. The filters were transferred by a filter transfer system into scintillation vials. After addition of 4 ml of Ultima Gold® (Packard), the samples were shaken for one hour and then the radioactivity was counted in a beta counter (Packard, Tricarb 2000 or 2200CA). The cp values were converted into dpm by means of a standard quench series with the aid of the instrument's own program.
(§5) Evaluation of the inhibition plots took place by iterative nonlinear regression analysis using the Statistical Analysis System (SAS) similar to the “LIGAND” program described by Munson and Rodbard.

[2] = target: T2, human dopamine D3 receptors (Homo sapiens, UniProt P35462); experiment: Dopamine D3 receptor binding, displacement of [125I]-iodosulpiride; conditions: membranes from HEK-293 cells with stably expressed human D3 receptors, 0.1 nM [125I]-iodosulpiride
T2 construct: expressed in transfected cells
T2 sequence (P35462 whole entry): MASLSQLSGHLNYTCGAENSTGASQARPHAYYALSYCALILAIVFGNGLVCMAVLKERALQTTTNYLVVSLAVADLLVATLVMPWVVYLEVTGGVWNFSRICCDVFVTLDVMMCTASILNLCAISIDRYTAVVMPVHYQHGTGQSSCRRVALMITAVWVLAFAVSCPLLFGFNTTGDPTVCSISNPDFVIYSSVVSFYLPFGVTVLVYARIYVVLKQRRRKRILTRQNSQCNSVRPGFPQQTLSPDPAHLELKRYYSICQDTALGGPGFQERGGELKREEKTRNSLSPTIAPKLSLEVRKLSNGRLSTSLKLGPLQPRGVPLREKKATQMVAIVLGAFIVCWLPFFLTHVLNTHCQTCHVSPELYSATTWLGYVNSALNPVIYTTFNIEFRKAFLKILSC
Method: as §1, §2
The incubation buffer comprised 50 mM Tris, 120 mM NaCl, 5 mM KCl, 2 mM CaCl2, 2 mM MgCl2 and 0.1% bovine serum albumin, 10 μM quinolone, 0.1% ascorbic acid (prepared fresh each day). The buffer was adjusted to pH 7.4 with HCl.
as §3, §4, §5

T1 sequence (P14416 whole entry, canonical isoform): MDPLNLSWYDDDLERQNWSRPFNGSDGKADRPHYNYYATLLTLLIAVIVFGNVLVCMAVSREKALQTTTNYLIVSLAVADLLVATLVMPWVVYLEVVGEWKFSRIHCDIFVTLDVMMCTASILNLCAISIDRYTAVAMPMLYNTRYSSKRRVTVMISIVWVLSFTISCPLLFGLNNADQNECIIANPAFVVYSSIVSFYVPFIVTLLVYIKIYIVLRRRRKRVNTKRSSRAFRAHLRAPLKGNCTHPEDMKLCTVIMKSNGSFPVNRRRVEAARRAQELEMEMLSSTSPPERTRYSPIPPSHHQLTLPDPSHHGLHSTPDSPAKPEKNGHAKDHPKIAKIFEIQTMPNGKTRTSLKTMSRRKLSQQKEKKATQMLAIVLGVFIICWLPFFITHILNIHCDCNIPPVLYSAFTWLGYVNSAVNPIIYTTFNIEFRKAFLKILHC

Row | Compound | Selectivity vs. D2L (Ki(D2L)/Ki(D3)) [1] | Ki [2] [nM]
1 | CCCc1cc(N2CCN(CCCCN3C(=O)CCc4ccccc43)CC2)nc(C(C)(C)C)n1 [Example 37, 1-{4-[4-(2-tert-Butyl-6-propylpyrimidin-4-yl)piperazin-1-yl]butyl}-3,4-dihydroquinolin-2(1H)-one] | 38 | 1.59
2 | CC(C)(C)c1nc(C(F)F)cc(N2CCN(CCCCN3C(=O)CCc4c(O)cccc43)CC2)n1 [Example 36, 1-(4-{4-[2-tert-Butyl-6-(difluoromethyl)pyrimidin-4-yl]piperazin-1-yl}butyl)-5-hydroxy-3,4-dihydroquinolin-2(1H)-one] | 41 | 1.18
3 | CC(C)(C)c1nc(N2CCN(CCCN3C(=O)CCc4ccccc43)CC2)cc(C(F)(F)F)n1.Cl [Example 1, 1-[2-tert-Butyl-6-(trifluoromethyl)pyrimidin-4-yl]-4-[3-(2-oxo-3,4-dihydroquinolin-1(2H)-yl)propyl]piperazin-4-ium chloride] | 37 | 3.43
4 | CCCc1cc(N2CCN(CCCCN3C(=O)CCc4c(OC)cccc43)CC2)nc(C(C)(C)C)n1 [Example 33, 1-{4-[4-(2-tert-Butyl-6-propylpyrimidin-4-yl)piperazin-1-yl]butyl}-5-methoxy-3,4-dihydroquinolin-2(1H)-one] | 65 | 1.71
5 | CC(C)(C)c1nc(N2CCN(C/C=C/CN3C(=O)CCc4ccccc43)CC2)cc(C(F)(F)F)n1 [Example 10, 1-((2E)-4-{4-[2-tert-Butyl-6-(trifluoromethyl)pyrimidin-4-yl]piperazin-1-yl}but-2-enyl)-3,4-dihydroquinolin-2(1H)-one] |  | 9.2
6 | CC(C)(C)c1nc(N2CCN(CCCN3C(=O)COc4ccccc43)CC2)cc(C(F)(F)F)n1 [Example 2, 4-(3-{4-[2-tert-Butyl-6-(trifluoromethyl)pyrimidin-4-yl]piperazin-1-yl}propyl)-2H-1,4-benzoxazin-3(4H)-one] | 29 | 12.1

Other lines, results leading:

Row | Selectivity vs. D2L (Ki(D2L)/Ki(D3)) [1] | Ki [2] [nM] | Compound
7 | 26 | 0.69 | CCCc1cc(N2CCN(CCCCN3C(=O)CCCc4c(O)cccc43)CC2)nc(C(C)(C)C)n1 [Example 56, 4-(2-tert-butyl-6-propyl-pyrimidin-4-yl)-1-[4-(6-hydroxy-2-oxo-2,3,4,5-tetrahydro-benzo[b]azepin-1-yl)butyl]piperazine]
8 | 25 | 2.25 | CCCc1cc(N2CCN(CCCCN3C(=O)CCCc4c(OC)cccc43)CC2)nc(C(C)(C)C)n1 [Example 54, 1-{4-[4-(2-tert-Butyl-6-propyl-pyrimidin-4-yl)piperazin-1-yl]butyl}-6-methoxy-1,3,4,5-tetrahydro-benzo[b]azepin-2-one]
9 | 41 | 4.68 | CC(C)(C)c1nc(N2CCN(CCCCN3C(=O)CCC4=C3CCCC4=O)CC2)cc(C(F)(F)F)n1 [Example 45, 1-{4-[4-(2-tert-Butyl-6-trifluoromethyl-pyrimidin-4-yl)piperazin-1-yl]butyl}-4,6,7,8-tetrahydro-1H,3H-quinoline-2,5-dione]
10 | 29 | 1.54 | CCCc1cc(N2CCN(CCCCN3C(=O)CCC4=C3CCCC4=O)CC2)nc(C(C)(C)C)n1 [Example 44, 1-{4-[4-(2-tert-Butyl-6-propyl-pyrimidin-4-yl)piperazin-1-yl]butyl}-4,6,7,8-tetrahydro-1H,3H-quinoline-2,5-dione]
